Common to all, as to format: functional
Assay [1] has as its system Mus musculus. As to the kind of experiment: Ability to reverse electroconvulsive shock (ECS) induced amnesia in mice, at a dose of 5 mg/Kg administered perorally.
The subject of assay [2] is Mus musculus. Briefly: Ability to reverse electroconvulsive shock (ECS) induced amnesia in mice, at a dose of 2.5 mg/Kg administered perorally.
For assay [3], the system named is Mus musculus. Briefly: Reversal of electroconvulsive shock induced amnesia in mice following 20 mg/Kg p.o.
The subject of assay [4] is Mus musculus. Briefly: Ability to reverse electroconvulsive shock (ECS) induced amnesia in mice, at a dose of 1.25 mg/Kg administered perorally.
Assay [5] deals with Mus musculus. As to the kind of experiment: Ability to reverse electroconvulsive shock (ECS) induced amnesia in mice, at a dose of 80 mg/Kg administered perorally.
Assay [6] concerns Mus musculus. As to the kind of experiment: Ability to reverse electroconvulsive shock (ECS) induced amnesia in mice, at a dose of 320 mg/Kg administered perorally.
The test system of assay [7] is Mus musculus. As to the kind of experiment: Ability to reverse electroconvulsive shock (ECS) induced amnesia in mice, at a dose of 40 mg/Kg administered perorally.
In assay [8] the test system is Mus musculus. As to the kind of experiment: Ability to reverse electroconvulsive shock (ECS) induced amnesia in mice, at a dose of 160 mg/Kg administered perorally.
Assay [9] relates to Mus musculus. As to the kind of experiment: Ability to reverse electroconvulsive shock (ECS) induced amnesia in mice, at a dose of 0.31 mg/Kg administered perorally.
Assay [10] deals with Mus musculus. As to the kind of experiment: Ability to reverse electroconvulsive shock (ECS) induced amnesia in mice, at a dose of 0.63 mg/Kg administered perorally.
For assay [11], the system named is Mus musculus. As to the kind of experiment: Reversal of electroconvulsive shock induced amnesia in mice following 1 mg/Kg p.o.
For assay [12], the system named is Mus musculus. As to the kind of experiment: Ability to reverse electroconvulsive shock (ECS) induced amnesia in mice, at a dose of 10 mg/Kg administered perorally.
Assay [13] has as its system Mus musculus. As to the kind of experiment: Reversal of electroconvulsive shock induced amnesia in mice following 100 mg/Kg p.o.
Assay [14] deals with Mus musculus. Briefly: Ability to reverse electroconvulsive shock (ECS) induced amnesia in mice, at a dose of 10 mg/kg administered perorally. Particulars: route oral.
The test system of assay [15] is Mus musculus. As to the kind of experiment: Ability to reverse electroconvulsive shock (ECS) induced amnesia in mice, at a dose of 1 mg/Kg administered perorally.
The subject of assay [16] is Mus musculus. Briefly: Ability to reverse electroconvulsive shock (ECS) induced amnesia in mice, at a dose of 100 mg/Kg administered perorally(Exp-1).
The subject of assay [17] is Mus musculus. Briefly: Ability to reverse electroconvulsive shock (ECS) induced amnesia in mice, at a dose of 100 mg/Kg administered perorally(Exp-2).
Assay [18] relates to Mus musculus. As to the kind of experiment: Ability to reverse electroconvulsive shock (ECS) induced amnesia in mice, at a dose of 1.0 mg/Kg administered perorally(Exp-1).
In assay [19] the test system is Mus musculus. Briefly: Ability to reverse electroconvulsive shock (ECS) induced amnesia in mice, at a dose of 1.0 mg/Kg administered perorally(Exp-2).
The subject of assay [20] is Mus musculus. Briefly: Ability to reverse electroconvulsive shock (ECS) induced amnesia in mice, at a dose of 10 mg/Kg administered perorally(Exp-1).
For assay [21], the system named is Mus musculus. As to the kind of experiment: Ability to reverse electroconvulsive shock (ECS) induced amnesia in mice, at a dose of 10 mg/Kg administered perorally(Exp-2).
The subject of assay [22] is Mus musculus. Briefly: Ability to reverse electroconvulsive shock (ECS) induced amnesia in mice, at a dose of 0.6 mg/Kg administered perorally.

As to `O=C1CCCC2CCC(=O)N12` (stereo unspecified), the Reversal in the assay with Mus musculus [1] is given as 29%; with Mus musculus [2], 56%; in the assay with Mus musculus [3], 50%; with Mus musculus [4] it was 18%; in the assay on Mus musculus [5], 64%.
`O=C1CCC2CCC(=O)N12` [ROLZIRACETAM]: the Reversal in the assay on Mus musculus [6] is given as 85%; in the assay with Mus musculus [7] it was 92%; with Mus musculus [1], 69%; with Mus musculus [8] it was 62%; in the assay with Mus musculus [2], 25%; in the assay with Mus musculus [3], 31%. For the same molecule, the Reversal stood at 19% in the assay with Mus musculus [9], 73% in the assay on Mus musculus [10], 27% in the assay with Mus musculus [4] and 63% in the assay with Mus musculus [5].
For the molecule `O=C1CCCC2CCCC(=O)N12`, the Reversal turned out to be 33% in the assay with Mus musculus [1], 44% in the assay with Mus musculus [3] and 55% in the assay with Mus musculus [5].
As to `O=C1CCSC2CCC(=O)N12` (stereo unspecified), the Reversal in the assay with Mus musculus [11] is 19%; in the assay on Mus musculus [12] it was 51%; with Mus musculus [13] it was 55%.
On to `CCOC(=O)CCC1CCC(=O)N1` (stereo unspecified), for which the Reversal was determined as 10% in the assay with Mus musculus [1], 0% with Mus musculus [3] and 27% in the assay with Mus musculus [5].
With `Cc1cccc(C)c1NC(=O)CCC1CCC(=O)N1` (stereo unspecified), the figures for the Reversal with Mus musculus [11], in the assay on Mus musculus [12] and in the assay on Mus musculus [13] were 49%, 56% and 50%, respectively.
Take `O=C1CCC2CCC(O)N12` (stereo unspecified): the Reversal with Mus musculus [14] was 27%; with Mus musculus [15] it was 19%; with Mus musculus [13] it was 17%.
Take `O=C1CCCCC2CCC(=O)N12` (stereo unspecified): the Reversal in the assay with Mus musculus [1] was found to be 14%; in the assay on Mus musculus [3] it was 9%; with Mus musculus [5], 36%.
As to `COC(=O)CCC1CCC(=O)N1` (stereo unspecified), the Reversal with Mus musculus [1] was determined as 75%; in the assay on Mus musculus [3] it was 100%; in the assay with Mus musculus [5], 75%.
Take `O=C1CCC(CCC(=O)OCc2ccccc2Cl)N1` (stereo unspecified): the Reversal came out at 70% in the assay with Mus musculus [16]; 31% with Mus musculus [17]; 30% with Mus musculus [18]; 15% in the assay on Mus musculus [19]; 80% in the assay on Mus musculus [20]; 85% in the assay on Mus musculus [21].
For `O=C1CCC(CCCC(=O)OCc2ccccc2)N1` (stereo unspecified), the figures for the Reversal in the assay on Mus musculus [11], in the assay on Mus musculus [12] and with Mus musculus [13] were 70%, 24% and 43%, respectively.
With `O=C(O)CC1CCC(=O)N1` (stereo unspecified), the values for the Reversal with Mus musculus [11], in the assay on Mus musculus [12] and with Mus musculus [13] were 2%, 0% and 42%, respectively.
In the same order, the values of `O=C(O)CCCC1CCC(=O)N1` (stereo unspecified) are 34%, 50% and 100%.
For `O=C(O)CCC1CCCC(=O)N1` (stereo unspecified), the Reversal in the assay on Mus musculus [1] was 86%; in the assay on Mus musculus [2] it was 60%; in the assay with Mus musculus [3] it was 70%; in the assay on Mus musculus [11] it was 67%; in the assay on Mus musculus [4], 56%; in the assay with Mus musculus [5], 8%.
Take `CC(C)N(CCNC(=O)CCC1CCC(=O)N1)C(C)C` (stereo unspecified): the Reversal amounted to 17% in the assay on Mus musculus [1], 33% in the assay with Mus musculus [3] and 17% in the assay with Mus musculus [5].
For `O=C(O)CSC1CCC(=O)N1` (stereo unspecified), the Reversal with Mus musculus [14] worked out at 21%; in the assay on Mus musculus [15], 64%; with Mus musculus [13] it was 31%.
On to `O=C1CCC(CCC(=O)OCc2ccccc2)N1` (stereo unspecified), for which the Reversal in the assay on Mus musculus [1] is 64%; in the assay on Mus musculus [2], 67%; in the assay with Mus musculus [3], 64%; with Mus musculus [22] it was 44%; in the assay with Mus musculus [4], 56%; in the assay on Mus musculus [5], 71%.
As for `O=C(O)CCCC1CCCC(=O)N1` (stereo unspecified), the Reversal amounted to 67% with Mus musculus [1], 100% in the assay with Mus musculus [3] and 0% in the assay with Mus musculus [5].
Take `NC(=O)CCC1CCC(=O)N1` (stereo unspecified): the Reversal with Mus musculus [11] was 64%; in the assay with Mus musculus [12] it was 33%; in the assay with Mus musculus [13], 64%.
Take `CC(C)OC(=O)CCC1CCC(=O)N1` (stereo unspecified): the Reversal in the assay on Mus musculus [3] was determined as 42%; with Mus musculus [11], 42%; in the assay with Mus musculus [13], 16%.
`CC1CC2CCC(=O)N2C1=O` (stereo unspecified): the Reversal in the assay with Mus musculus [1] is 50%; in the assay on Mus musculus [2], 50%; in the assay on Mus musculus [3], 0%; in the assay on Mus musculus [4] it was 20%; in the assay with Mus musculus [5] it was 30%.
On to `CC12CCC(=O)N1C(=O)CC2`, for which the Reversal in the assay with Mus musculus [1] is reported as 31%; in the assay with Mus musculus [3], 77%; in the assay on Mus musculus [5] it was 85%.
For `O=C(CCC1CCC(=O)N1)NCc1ccccc1` (stereo unspecified), the Reversal with Mus musculus [1] was 0%; with Mus musculus [3], 62%; with Mus musculus [5] it was 50%.
In the case of `O=C1CCC2SCC(=O)N12` (stereo unspecified), the Reversal is on record as 31% with Mus musculus [11], 0% with Mus musculus [12] and 0% in the assay on Mus musculus [13].
In the case of `CC(OC(=O)CCC1CCC(=O)N1)c1ccccc1` (stereo unspecified), the results for the Reversal in the assay with Mus musculus [11], with Mus musculus [12] and in the assay on Mus musculus [13] were 13%, 60% and 16%, respectively.
`CC1CC2CC(C)C(=O)N2C1=O` (stereo unspecified): the Reversal in the assay with Mus musculus [1] is on record as 0%; in the assay with Mus musculus [3] it was 20%; with Mus musculus [5], 20%.
Turning to `O=C1CCC(CCC(=O)OCc2ccc(Cl)cc2)N1` (stereo unspecified), the Reversal was 0% in the assay on Mus musculus [11], 25% in the assay with Mus musculus [12] and 42% with Mus musculus [13].
Turning to `COC(=O)CCSC1CCC(=O)N1` (stereo unspecified), the Reversal was 25% in the assay on Mus musculus [14], 53% in the assay with Mus musculus [15] and 87% with Mus musculus [13].
`O=C(CCC1CCC(=O)N1)Nc1ccncc1` (stereo unspecified): the Reversal in the assay with Mus musculus [11] came out at 64%; with Mus musculus [12], 59%; in the assay with Mus musculus [13], 53%.
In the case of `O=C(O)CCC1CCC(=O)N1` (stereo unspecified), the Reversal with Mus musculus [1] is given as 89%; in the assay with Mus musculus [2], 91%; in the assay with Mus musculus [3], 100%; in the assay on Mus musculus [22] it was 58%; in the assay with Mus musculus [4], 83%; with Mus musculus [5], 67%.
For the molecule `O=C(CCC1CCC(=O)N1)NCCc1ccc(O)cc1` (stereo unspecified), the figures for the Reversal in the assay with Mus musculus [11], in the assay on Mus musculus [12] and in the assay with Mus musculus [13] were 20%, 0% and 0%, respectively.
`O=C1CCC(CCC(=O)NC23C[C@H]4C[C@@H](C2)C[C@@H](C3)C4)N1` (stereo partly specified): the Reversal in the assay on Mus musculus [11] came to 57%; in the assay with Mus musculus [12], 40%; in the assay on Mus musculus [13] it was 57%.
With `O=C1CCC(/C=C/C(=O)OCc2ccccc2)N1` (stereo unspecified), the Reversal was determined as 31% with Mus musculus [14], 0% with Mus musculus [15] and 17% in the assay on Mus musculus [13].
For `CCOC(=O)CCSC1CCC(=O)N1` (stereo unspecified), the Reversal was found to be 66% in the assay with Mus musculus [14], 49% in the assay on Mus musculus [15] and 44% with Mus musculus [13].
Turning to `O=C1CCC(CCC(=O)OCc2cccc(Cl)c2)N1` (stereo unspecified), the Reversal is recorded as 100% with Mus musculus [11], 30% with Mus musculus [12] and 90% in the assay with Mus musculus [13].
For `O=C(O)CCC1CCCCC(=O)N1` (stereo unspecified), the Reversal in the assay on Mus musculus [11] worked out at 0%; in the assay on Mus musculus [12], 38%; in the assay with Mus musculus [13], 67%.
